Test results as given in US20220380341A1, “INHIBITORS OF HIV-1 NEF FOR THE TREATMENT OF HIV DISEASE” (priority 2018, published 2022).
Like-named read-outs stand apart in the source and are kept apart here.

Experiments:
[1] = test system: HIV-1NL4-3; assay: HIV-1 infectivity assay in TZM-bl reporter cell line (LTR-luciferase, 48 h); type: cell-based; settings: Human immunodeficiency virus 1, TZM-bl
Summary of the method: (§1)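 Read-out is luciferase from an integrated HIV-1 LTR reporter in TZM-bl cells, 48 h after HIV-1NL4-3 infection in the presence of 1 μM compound. Scale set by DMSO-treated wild-type-infected cells (0%) and Nef-defective virus (100% Nef-dependent effect). Cell Titer Blue measures cytotoxicity without virus.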

[2] = test system: TZM-bl cell line; type: cell-based; settings: human, 1 μM
Summary of the method: as §1

[3] = target: HIV-1 NefNL4-3 (Human immunodeficiency virus type 1 group M subtype B, UniProt P03406, A33V/T15A/T51N/V11I); assay: Surface plasmon resonance binding to recombinant full-length Nef (NL4-3); settings: for RU30/RUNef (extent of binding): response units at 30 μM relative to Nef immobilized on the SPR chip; for Nef NL4-3 Binding, SPR 1:1 or 2-site fitting KD1: 1:1 Langmuir fit where the KD2 cell says '1 to 1 fitting', else 2-site fit
[4] = 1.0 μM, TZM-bl reporter cell line, Table 4, read-out: % Infectivity Inhibition
[5] = 48 h, Table 1, TZM-bl cells, 1 μM, 48 h, 100% = Nef-defective HIV-1, read-out: HIV-1 Infectivity % Inhibition Norm. to Δ-Nef @ 1 μM
[6] = KD, M, Table 4, SPR fit 2-step induced fit, KD = koff/kon × koff2/(koff2 + kon2)
[7] = Nef NL4-3 Binding, SPR 2-state fitting KD, Table 1, 2-step induced-fit model
[8] = Table 4, 2-step induced fit, T = 1/koff2
[9] = read-out: Nef NL4-3 Binding, SPR 1:1 or 2-site fitting KD2, Table 1, 2-site fit, second component
[10] = KD, M, Table 4, SPR fit 1:1 Langmuir, KD = koff/kon
[11] = Table 4, 1:1 Langmuir fit, T = 1/koff

SMILES | inhibition at 1 µM [1, 4] [%] | inhibition at 1 µM [1, 5] [%] | % Cell Viability [2] [%] | Percent Viability @ 1 μM (TZM-bl cells) [2] [%] | Kd [3] [µM] | Kd [3, 6] [µM] | Kd [3, 7] [µM] | T, minutes (residence time) [3, 8] | Kd [3, 9] [µM] | RU30/RUNef (extent of binding) [3] | Kd [3, 10] [µM] | T, minutes (residence time) [3, 11] | Nef NL4-3 Binding, SPR 1:1 or 2-site fitting KD1 ([3]; Table 1) | Kd ([3]; Nef NL4-3 Binding, SPR 1:1 or 2-site fitting KD2, Table 1, 2-site fit, second component) [µM]
CS(=O)(=O)c1ccc(-c2nn(-c3nc4cc(Cl)ccc4[nH]3)c(O)c2CCC2CCNCC2)cc1 [Compound I-550, 1-(5-chloro-1H-1,3-benzodiazol-2-yl)-3-(4-methanesulfonylphenyl)-4-[2-(piperidin-4-yl)ethyl]-1H-pyrazol-5-ol] | 0 | -12.9 | 98.8 | 98.8 | 0.282 | 0.00854 | 0.00854 | 3.33E + 03 minutes | 6.2 | 1.75E- 02 |  |  |  | 
CC(=O)N1CCC(c2nn(-c3nc4ccccc4[nH]3)c(O)c2Cc2ccc(F)c(F)c2)CC1 [Compound I-744, 1-{4-[1-(1H-1,3-benzodiazol-2-yl)-4-[(3,4-difluorophenyl)methyl]-5-hydroxy-1H-pyrazol-3-yl]piperidin-1-yl}ethan-1-one] | 51.2 | 51.2 | 98.2 | 98.2 | 0.0235 | 1.95 | 1.95 | 5.61E + 00 minutes | 7.28 | 4.92E- 03 |  |  |  | 
COC(=O)c1ccc(CCc2c(-c3ccccc3)nn(-c3nc4cc(Cl)ccc4[nH]3)c2O)cc1 [Compound I-171, methyl 4-{2-[1-(5-chloro-1H-1,3-benzodiazol-2-yl)-5-hydroxy-3-phenyl-1H-pyrazol-4-yl]ethyl}benzoate] | 100 | 131 | 75.8 | 75.8 | 0.892 | 0.0133 | 0.0133 | 7.82E + 02 minutes |  | 2.77E- 02 |  |  |  | 
Oc1c(CC2CCOCC2)c(-c2ccccc2)nn1-c1nc2ccccc2[nH]1 [Compound I-183, 1-(1H-1,3-benzodiazol-2-yl)-4-[(oxan-4-yl)methyl]-3-phenyl-1H-pyrazol-5-ol] | 37.8 |  | 100 |  |  |  |  |  |  | 1.71E- 03 | 2.27 | 7.61E + 00 minutes |  | 
O=C(OCc1ccccc1)N1CCC(c2nn(-c3nc4cccnc4[nH]3)c(O)c2CCc2ccc(F)cc2)CC1 [Compound I-306, benzyl 4-{4-[2-(4-fluorophenyl)ethyl]-5-hydroxy-1-{3H-imidazo[4,5-b]pyridin-2-yl}-1H-pyrazol-3-yl}piperidine-1-carboxylate] | 0 | -5.2 | 95.7 | 95.7 | 0.0136 | 0.731 | 0.731 | 3.52E + 01 minutes | 5.43 | 9.61E- 03 |  |  |  | 
O=S(=O)(C1CC1)N1CCC(c2nn(-c3nc4ccccc4[nH]3)c(O)c2CCc2ccc(F)cc2)CC1 [Compound I-748, 1-(1H-1,3-benzodiazol-2-yl)-3-[1-(cyclopropanesulfonyl)piperidin-4-yl]-4-[2-(4-fluorophenyl)ethyl]-1H-pyrazol-5-ol] |  | 22.3 |  | 94.8 | 4.15 |  |  |  |  |  |  |  |  | 
CC(C)(O)C(=O)N1CCC(CCc2c(-c3cccc(S(C)(=O)=O)c3)nn(-c3nc4ccccc4[nH]3)c2O)CC1 [Compound I-776, 1-(4-{2-[1-(1H-1,3-benzodiazol-2-yl)-5-hydroxy-3-(3-methanesulfonylphenyl)-1H-pyrazol-4-yl]ethyl}piperidin-1-yl)-2-hydroxy-2-methylpropan-1-one] | 19.3 | 19.3 | 97.1 | 97.1 | 0.393 | 1.2 | 1.2 | 1.06E + 01 minutes |  | 5.14E- 03 |  |  |  | 
Oc1c(CCc2ccc(F)cc2)c(C2CCCO2)nn1-c1nc2ccccc2[nH]1 (stereo not drawn) [Compound I-136, 1-(1H-1,3-benzodiazol-2-yl)-4-[2-(4-fluorophenyl)ethyl]-3-(oxolan-2-yl)-1H-pyrazol-5-ol] | 26.5 | 26.5 | 99.9 | 99.9 | 0.16 | 2.46 | 2.46 | 3.32E + 00 minutes | 4.77 | 5.11E- 03 |  |  |  | 
CN1CCN(CC(=O)N2CCC(c3nn(-c4nc5ccccc5[nH]4)c(O)c3CCc3ccc(F)cc3)CC2)CC1 [Compound I-726, 1-{4-[1-(1H-1,3-benzodiazol-2-yl)-4-[2-(4-fluorophenyl)ethyl]-5-hydroxy-1H-pyrazol-3-yl]piperidin-1-yl}-2-(4-methylpiperazin-1-yl)ethan-1-one] |  | -4.6 |  | 102.4 |  |  |  |  |  |  |  |  | No Interaction | 
O=C(c1ccc(F)cc1)N1CCC(CCc2c(C3CC3)nn(-c3nc4cc(Cl)ccc4[nH]3)c2O)CC1 [Compound I-710, 1-(5-chloro-1H-1,3-benzodiazol-2-yl)-3-cyclopropyl-4-{2-[1-(4-fluorobenzoyl)piperidin-4-yl]ethyl}-1H-pyrazol-5-ol] | 2.5 | 2.5 | 100 | 106.9 |  | 2.46 | 2.46 | 4.16E + 00 minutes | 9.78 | 2.12E- 02 |  |  |  | 
COC(=O)N1CCC(CCc2c(-c3ccc(C(F)(F)F)cn3)nn(-c3nc4ccccc4[nH]3)c2O)CC1 [Compound I-715, methyl 4-{2-[1-(1H-1,3-benzodiazol-2-yl)-5-hydroxy-3-[5-(trifluoromethyl)pyridin-2-yl]-1H-pyrazol-4-yl]ethyl}piperidine-1-carboxylate] | 25.2 | 25.2 | 99.1 | 99.1 | 0.686 | 2.51 | 2.51 | 3.76E + 00 minutes |  | 5.47E- 03 |  |  |  | 1.33
CC(=O)N1CCC(Cc2nn(-c3nc4ccccc4[nH]3)c(O)c2CCc2ccc(F)cc2)CC1 [Compound I-772, 1-(4-{[1-(1H-1,3-benzodiazol-2-yl)-4-[2-(4-fluorophenyl)ethyl]-5-hydroxy-1H-pyrazol-3-yl]methyl}piperidin-1-yl)ethan-1-one] |  | 49.6 |  | 100.1 | 0.858 |  |  |  |  |  |  |  |  | 
Oc1c(CCc2ccc(F)cc2)c(CC2CCN(Cc3cccnc3)CC2)nn1-c1nc2ccccc2[nH]1 [Compound I-808, 1-(1H-1,3-benzodiazol-2-yl)-4-[2-(4-fluorophenyl)ethyl]-3-({1-[(pyridin-3-yl)methyl]piperidin-4-yl}methyl)-1H-pyrazol-5-ol] |  | 12.8 |  | 102.6 |  |  |  |  |  |  |  |  | No Interaction | 
Cc1ccn(CCc2c(-c3ccc(C(F)(F)F)cc3)nn(-c3nc4cccnc4[nH]3)c2O)n1 [Compound I-303, 1-{3H-imidazo[4,5-b]pyridin-2-yl}-4-[2-(3-methyl-1H-pyrazol-1-yl)ethyl]-3-[4-(trifluoromethyl)phenyl]-1H-pyrazol-5-ol] | 40.1 | 40.6 | 98.3 | 98.3 | 0.396 |  |  |  |  | 3.06E- 03 | 0.396 | 9.47E + 01 minutes |  | 
CC(C)(C)OC(=O)N1CCCC(Cc2nn(-c3nc4ccccc4[nH]3)c(O)c2CCc2ccc(F)cc2)C1 (stereo not drawn) [Compound I-214, tert-butyl 3-{[1-(1H-1,3-benzodiazol-2-yl)-4-[2-(4-fluorophenyl)ethyl]-5-hydroxy-1H-pyrazol-3-yl]methyl}piperidine-1-carboxylate] |  | -5.5 |  | 99.9 | 0.0208 |  |  |  |  |  |  |  |  | 
O=C(CN1CCOCC1)N1CCCC1c1nn(-c2nc3ccccc3[nH]2)c(O)c1CCc1ccc(F)cc1 (stereo not drawn) [Compound I-763, 1-{2-[1-(1H-1,3-benzodiazol-2-yl)-4-[2-(4-fluorophenyl)ethyl]-5-hydroxy-1H-pyrazol-3-yl]pyrrolidin-1-yl}-2-(morpholin-4-yl)ethan-1-one] |  | 11 |  | 97.6 | 0.422 |  |  |  |  |  |  |  |  | 
